Reference: ChEMBL document CHEMBL4507310, “Data for DCP probe A-1211212” (2021)

Legend:
[1] = target: Tyrosine-protein kinase TXK (Homo sapiens) (UniProt P42681); conditions: Compound concentration 1000.0 nM
[2] = target: Vascular endothelial growth factor receptor 1 (Homo sapiens) (UniProt P17948); conditions: Compound concentration 1000.0 nM
[3] = target: T1, Muscarinic acetylcholine receptor M5 (Homo sapiens) (UniProt P08912); conditions: Compound concentration 10.0 uM
T1 sequence (whole entry): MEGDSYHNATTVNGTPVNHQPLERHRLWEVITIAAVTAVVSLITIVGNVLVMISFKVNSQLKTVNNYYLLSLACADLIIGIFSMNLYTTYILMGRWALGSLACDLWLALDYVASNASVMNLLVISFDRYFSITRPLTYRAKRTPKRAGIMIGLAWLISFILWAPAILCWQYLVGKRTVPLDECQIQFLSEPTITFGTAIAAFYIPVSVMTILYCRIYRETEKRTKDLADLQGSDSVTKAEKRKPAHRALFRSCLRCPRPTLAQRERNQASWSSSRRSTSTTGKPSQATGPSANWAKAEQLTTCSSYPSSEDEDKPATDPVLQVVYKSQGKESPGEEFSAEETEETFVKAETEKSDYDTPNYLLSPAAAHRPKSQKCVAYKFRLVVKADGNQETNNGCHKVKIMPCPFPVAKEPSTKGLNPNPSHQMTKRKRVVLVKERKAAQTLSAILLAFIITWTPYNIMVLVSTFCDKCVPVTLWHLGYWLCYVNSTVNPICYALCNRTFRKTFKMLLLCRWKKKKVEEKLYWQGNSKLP

[4] = target: Protein kinase C eta type (Homo sapiens) (UniProt P24723); conditions: Compound concentration 1000.0 nM
[5] = target: Dual specificity mitogen-activated protein kinase kinase 6 (Homo sapiens) (UniProt P52564); conditions: Compound concentration 1000.0 nM
[6] = target: Activin receptor type-1-like (Homo sapiens) (UniProt P37023); conditions: Compound concentration 1000.0 nM
[7] = target: Histamine H1 receptor (Homo sapiens) (UniProt P35367); conditions: Compound concentration 10.0 uM
[8] = tested on: Mast/stem cell growth factor receptor Kit (Homo sapiens), P10721 [V559D]; conditions: Compound concentration 1000.0 nM
[9] = target: Casein kinase II subunit alpha' (Homo sapiens) (UniProt P19784); conditions: Compound concentration 1000.0 nM
[10] = target: Mitogen-activated protein kinase 9 (Homo sapiens) (UniProt P45984); conditions: Compound concentration 1000.0 nM
[11] = target: Glycogen synthase kinase-3 alpha (Homo sapiens) (UniProt P49840); conditions: Compound concentration 1000.0 nM
[12] = target: Serine/threonine-protein kinase Chk1 (Homo sapiens) (UniProt O14757); conditions: Compound concentration 1000.0 nM
[13] = target: BDNF/NT-3 growth factors receptor (Homo sapiens) (UniProt Q16620); conditions: Compound concentration 1000.0 nM
[14] = target: Activin receptor type-1B (Homo sapiens) (UniProt P36896); conditions: Compound concentration 1000.0 nM
[15] = target: AP2-associated protein kinase 1 (Homo sapiens) (UniProt Q2M2I8); conditions: Compound concentration 1000.0 nM
[16] = target: cGMP-dependent protein kinase 1 (Homo sapiens) (UniProt Q13976); conditions: Compound concentration 1000.0 nM
[17] = target: RAC-beta serine/threonine-protein kinase (Homo sapiens) (UniProt P31751); conditions: Compound concentration 1000.0 nM
[18] = target: High affinity nerve growth factor receptor (Homo sapiens) (UniProt P04629); conditions: Compound concentration 1000.0 nM
[19] = target: Urotensin-2 receptor (Homo sapiens) (UniProt Q9UKP6); experiment: UT (h) Eurofins-Cerep binding assay; parameters: ligand concentration 0.1 nM; conditions: filed as agonist, Compound concentration 10.0 uM
[20] = target: Casein kinase I isoform gamma-1 (Homo sapiens) (UniProt Q9HCP0); conditions: Compound concentration 1000.0 nM
[21] = target: Calcium/calmodulin-dependent protein kinase type 1 (Homo sapiens) (UniProt Q14012); conditions: Compound concentration 1000.0 nM
[22] = target: Dual specificity protein kinase CLK2 (Homo sapiens) (UniProt P49760); conditions: Compound concentration 1000.0 nM
[23] = target: Ephrin type-A receptor 6 (Homo sapiens) (UniProt Q9UF33); conditions: Compound concentration 1000.0 nM
[24] = target: Tyrosine-protein kinase ZAP-70 (Homo sapiens) (UniProt P43403); conditions: Compound concentration 1000.0 nM
[25] = tested on: Epidermal growth factor receptor (Homo sapiens), P00533 [G719C]; conditions: Compound concentration 1000.0 nM
[26] = tested on: Phosphatidylinositol 4,5-bisphosphate 3-kinase catalytic subunit alpha isoform (Homo sapiens), P42336 [H1047Y]; conditions: Compound concentration 1000.0 nM
[27] = tested on: Serine/threonine-protein kinase B-raf (Homo sapiens), P15056 [V600E]; conditions: Compound concentration 1000.0 nM
[28] = target: L-type Ca2+ channel (dihydropyridine site) (Rattus norvegicus, UniProt P22002+P27732+Q02485); experiment: Ca2+ channel (L, dihydropyridine site) Eurofins-Cerep binding assay; type: protein assay; parameters: incubation time 90 min, incubation temperature RT, ligand concentration 0.1 nM; conditions: rat cerebral cortex, probe [3H]nitrendipine (0.1 nM), compound concentration 10 uM, read-out: % Inhibition of Control Specific Binding (Mean n=2)
[29] = target: T2, Muscarinic acetylcholine receptor M1 (Homo sapiens) (UniProt P11229); conditions: Compound concentration 10.0 uM
T2 sequence (whole entry): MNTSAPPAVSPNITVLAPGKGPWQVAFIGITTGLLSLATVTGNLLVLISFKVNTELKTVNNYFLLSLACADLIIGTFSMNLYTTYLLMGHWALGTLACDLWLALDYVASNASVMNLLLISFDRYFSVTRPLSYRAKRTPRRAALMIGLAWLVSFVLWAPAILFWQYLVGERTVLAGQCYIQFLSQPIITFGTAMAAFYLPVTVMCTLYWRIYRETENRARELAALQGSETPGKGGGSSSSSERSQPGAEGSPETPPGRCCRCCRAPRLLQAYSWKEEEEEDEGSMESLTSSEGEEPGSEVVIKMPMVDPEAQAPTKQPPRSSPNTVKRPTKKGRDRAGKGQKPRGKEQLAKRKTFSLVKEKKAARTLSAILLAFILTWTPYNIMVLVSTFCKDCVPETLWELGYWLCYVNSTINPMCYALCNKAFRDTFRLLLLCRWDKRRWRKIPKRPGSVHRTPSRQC

[30] = target: Tyrosine-protein kinase receptor UFO (Homo sapiens) (UniProt P30530); conditions: Compound concentration 1000.0 nM
[31] = target: Ribosomal protein S6 kinase alpha-6 (Homo sapiens) (UniProt Q9UK32); conditions: Compound concentration 1000.0 nM
Ribosomal protein S6 kinase alpha-6 (Homo sapiens), sequence (Q9UK32 whole entry): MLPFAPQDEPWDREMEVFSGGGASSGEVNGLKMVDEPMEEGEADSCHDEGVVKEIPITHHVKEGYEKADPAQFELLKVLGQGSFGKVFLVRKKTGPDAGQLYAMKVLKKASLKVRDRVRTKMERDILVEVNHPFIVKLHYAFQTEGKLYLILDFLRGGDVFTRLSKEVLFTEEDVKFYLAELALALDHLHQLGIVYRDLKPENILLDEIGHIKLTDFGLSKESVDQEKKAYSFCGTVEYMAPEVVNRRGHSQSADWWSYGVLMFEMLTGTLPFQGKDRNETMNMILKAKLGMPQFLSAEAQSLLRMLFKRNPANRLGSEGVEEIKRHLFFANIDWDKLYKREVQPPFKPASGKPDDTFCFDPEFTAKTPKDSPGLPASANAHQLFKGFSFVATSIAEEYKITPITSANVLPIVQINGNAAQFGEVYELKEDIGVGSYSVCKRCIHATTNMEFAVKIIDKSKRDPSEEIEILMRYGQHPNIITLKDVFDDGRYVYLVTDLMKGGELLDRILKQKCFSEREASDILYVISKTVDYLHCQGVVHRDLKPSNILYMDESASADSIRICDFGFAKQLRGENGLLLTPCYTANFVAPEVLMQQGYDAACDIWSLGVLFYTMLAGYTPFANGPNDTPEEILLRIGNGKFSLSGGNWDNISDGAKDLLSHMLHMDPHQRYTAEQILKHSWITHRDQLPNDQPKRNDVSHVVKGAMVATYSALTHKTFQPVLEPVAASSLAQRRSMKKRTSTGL

Casein kinase II subunit alpha' (Homo sapiens), sequence (P19784 whole entry, looked up): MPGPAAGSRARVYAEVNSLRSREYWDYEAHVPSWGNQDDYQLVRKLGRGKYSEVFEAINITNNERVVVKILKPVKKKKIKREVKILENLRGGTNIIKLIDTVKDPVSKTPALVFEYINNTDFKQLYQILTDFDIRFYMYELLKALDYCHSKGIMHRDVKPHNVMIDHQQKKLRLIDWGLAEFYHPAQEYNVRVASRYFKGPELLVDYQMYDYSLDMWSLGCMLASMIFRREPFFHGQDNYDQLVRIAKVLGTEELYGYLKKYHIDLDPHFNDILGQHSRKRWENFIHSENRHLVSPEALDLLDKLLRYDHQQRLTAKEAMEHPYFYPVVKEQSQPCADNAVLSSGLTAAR
Phosphatidylinositol 4,5-bisphosphate 3-kinase catalytic subunit alpha isoform (Homo sapiens), P42336 [H1047Y], sequence (P42336 whole entry H1047Y, canonical isoform): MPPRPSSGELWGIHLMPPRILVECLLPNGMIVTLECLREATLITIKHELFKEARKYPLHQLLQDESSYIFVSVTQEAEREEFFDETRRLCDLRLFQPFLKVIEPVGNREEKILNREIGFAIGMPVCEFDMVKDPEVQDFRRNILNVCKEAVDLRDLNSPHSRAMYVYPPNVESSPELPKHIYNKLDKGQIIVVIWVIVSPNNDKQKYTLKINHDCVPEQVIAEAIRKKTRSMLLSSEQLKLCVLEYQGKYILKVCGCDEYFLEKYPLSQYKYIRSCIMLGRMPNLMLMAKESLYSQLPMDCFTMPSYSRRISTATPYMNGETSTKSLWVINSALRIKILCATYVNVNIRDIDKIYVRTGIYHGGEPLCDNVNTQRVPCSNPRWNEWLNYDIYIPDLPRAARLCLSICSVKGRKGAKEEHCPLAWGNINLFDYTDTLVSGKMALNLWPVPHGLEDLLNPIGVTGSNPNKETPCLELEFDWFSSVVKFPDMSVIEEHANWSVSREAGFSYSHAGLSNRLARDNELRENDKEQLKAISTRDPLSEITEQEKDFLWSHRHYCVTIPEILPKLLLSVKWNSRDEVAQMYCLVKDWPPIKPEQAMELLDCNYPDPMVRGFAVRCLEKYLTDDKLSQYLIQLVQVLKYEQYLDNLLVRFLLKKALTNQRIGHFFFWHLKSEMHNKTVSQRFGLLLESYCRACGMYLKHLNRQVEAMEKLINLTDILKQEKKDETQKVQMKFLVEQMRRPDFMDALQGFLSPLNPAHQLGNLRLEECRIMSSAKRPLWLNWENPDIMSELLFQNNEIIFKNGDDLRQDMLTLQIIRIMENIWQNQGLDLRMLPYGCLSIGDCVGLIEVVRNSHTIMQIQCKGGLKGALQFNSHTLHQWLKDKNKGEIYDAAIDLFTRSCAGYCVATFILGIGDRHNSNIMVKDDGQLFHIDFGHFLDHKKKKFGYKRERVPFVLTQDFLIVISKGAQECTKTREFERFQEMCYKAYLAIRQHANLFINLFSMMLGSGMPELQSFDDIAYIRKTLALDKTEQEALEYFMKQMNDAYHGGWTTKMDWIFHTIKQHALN
Vascular endothelial growth factor receptor 1 (Homo sapiens), sequence (P17948 whole entry): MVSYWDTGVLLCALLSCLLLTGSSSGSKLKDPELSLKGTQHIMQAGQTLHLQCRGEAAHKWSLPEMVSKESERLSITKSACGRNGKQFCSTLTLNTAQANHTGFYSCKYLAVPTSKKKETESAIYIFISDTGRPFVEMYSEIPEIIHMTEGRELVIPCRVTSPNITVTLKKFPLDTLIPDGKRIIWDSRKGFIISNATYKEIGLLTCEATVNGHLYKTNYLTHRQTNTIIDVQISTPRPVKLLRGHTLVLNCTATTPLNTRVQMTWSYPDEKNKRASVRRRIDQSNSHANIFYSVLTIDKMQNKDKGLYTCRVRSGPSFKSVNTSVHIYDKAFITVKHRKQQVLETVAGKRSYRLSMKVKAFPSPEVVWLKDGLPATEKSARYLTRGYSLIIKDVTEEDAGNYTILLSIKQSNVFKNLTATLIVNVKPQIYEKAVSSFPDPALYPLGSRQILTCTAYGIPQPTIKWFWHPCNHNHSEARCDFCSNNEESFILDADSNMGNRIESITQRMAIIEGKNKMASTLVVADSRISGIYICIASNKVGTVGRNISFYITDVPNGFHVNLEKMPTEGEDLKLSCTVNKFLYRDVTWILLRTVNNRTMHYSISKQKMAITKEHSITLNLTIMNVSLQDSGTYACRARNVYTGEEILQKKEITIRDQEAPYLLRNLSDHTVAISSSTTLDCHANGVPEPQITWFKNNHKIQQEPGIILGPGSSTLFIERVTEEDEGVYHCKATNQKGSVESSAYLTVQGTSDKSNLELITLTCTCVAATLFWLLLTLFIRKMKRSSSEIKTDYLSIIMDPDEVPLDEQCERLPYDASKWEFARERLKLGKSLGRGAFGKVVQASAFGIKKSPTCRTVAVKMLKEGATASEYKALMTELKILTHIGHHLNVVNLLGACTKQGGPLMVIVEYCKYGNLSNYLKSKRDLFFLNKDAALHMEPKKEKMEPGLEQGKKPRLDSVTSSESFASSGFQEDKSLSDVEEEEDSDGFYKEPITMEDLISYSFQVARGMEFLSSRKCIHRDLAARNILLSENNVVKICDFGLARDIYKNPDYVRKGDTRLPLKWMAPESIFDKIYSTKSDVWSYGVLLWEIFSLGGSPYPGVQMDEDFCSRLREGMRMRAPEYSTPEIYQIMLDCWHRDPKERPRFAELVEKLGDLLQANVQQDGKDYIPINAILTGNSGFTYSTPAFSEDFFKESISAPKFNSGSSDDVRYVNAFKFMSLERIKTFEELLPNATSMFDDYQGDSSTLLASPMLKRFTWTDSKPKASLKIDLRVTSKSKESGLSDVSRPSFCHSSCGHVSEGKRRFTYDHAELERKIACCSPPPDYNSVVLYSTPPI
High affinity nerve growth factor receptor (Homo sapiens), sequence (P04629 33-796 limits assumed): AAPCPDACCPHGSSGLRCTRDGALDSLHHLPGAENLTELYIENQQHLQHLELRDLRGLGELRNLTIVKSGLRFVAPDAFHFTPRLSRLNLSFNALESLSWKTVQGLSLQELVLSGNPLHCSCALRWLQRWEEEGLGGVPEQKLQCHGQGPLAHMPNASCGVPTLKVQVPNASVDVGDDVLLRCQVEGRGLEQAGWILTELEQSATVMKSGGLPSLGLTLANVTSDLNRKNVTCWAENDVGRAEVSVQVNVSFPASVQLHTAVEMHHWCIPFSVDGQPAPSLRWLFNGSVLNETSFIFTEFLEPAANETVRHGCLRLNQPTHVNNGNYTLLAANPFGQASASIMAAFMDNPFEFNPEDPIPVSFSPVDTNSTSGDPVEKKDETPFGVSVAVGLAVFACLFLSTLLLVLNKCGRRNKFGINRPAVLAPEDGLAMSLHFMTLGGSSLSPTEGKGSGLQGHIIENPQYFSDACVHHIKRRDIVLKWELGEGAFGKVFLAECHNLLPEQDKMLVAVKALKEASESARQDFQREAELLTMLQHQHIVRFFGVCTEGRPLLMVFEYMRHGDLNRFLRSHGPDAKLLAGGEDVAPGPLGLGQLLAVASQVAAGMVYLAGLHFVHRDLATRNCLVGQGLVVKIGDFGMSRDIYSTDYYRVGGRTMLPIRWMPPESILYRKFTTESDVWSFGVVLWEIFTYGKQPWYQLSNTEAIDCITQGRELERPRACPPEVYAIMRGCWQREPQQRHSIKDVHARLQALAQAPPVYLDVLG
Mitogen-activated protein kinase 9 (Homo sapiens), sequence (P45984 whole entry, looked up): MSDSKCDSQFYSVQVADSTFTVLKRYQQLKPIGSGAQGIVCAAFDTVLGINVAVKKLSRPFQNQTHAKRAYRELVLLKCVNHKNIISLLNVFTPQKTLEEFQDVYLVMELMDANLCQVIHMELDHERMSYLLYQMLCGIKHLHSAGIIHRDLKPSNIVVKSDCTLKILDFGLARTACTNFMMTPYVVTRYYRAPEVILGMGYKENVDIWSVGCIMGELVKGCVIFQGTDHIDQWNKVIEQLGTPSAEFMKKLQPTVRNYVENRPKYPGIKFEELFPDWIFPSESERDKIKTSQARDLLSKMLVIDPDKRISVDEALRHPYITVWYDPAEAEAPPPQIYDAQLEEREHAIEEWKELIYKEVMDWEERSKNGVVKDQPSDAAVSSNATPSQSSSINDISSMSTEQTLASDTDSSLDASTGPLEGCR
Calcium/calmodulin-dependent protein kinase type 1 (Homo sapiens), sequence (Q14012 whole entry, looked up): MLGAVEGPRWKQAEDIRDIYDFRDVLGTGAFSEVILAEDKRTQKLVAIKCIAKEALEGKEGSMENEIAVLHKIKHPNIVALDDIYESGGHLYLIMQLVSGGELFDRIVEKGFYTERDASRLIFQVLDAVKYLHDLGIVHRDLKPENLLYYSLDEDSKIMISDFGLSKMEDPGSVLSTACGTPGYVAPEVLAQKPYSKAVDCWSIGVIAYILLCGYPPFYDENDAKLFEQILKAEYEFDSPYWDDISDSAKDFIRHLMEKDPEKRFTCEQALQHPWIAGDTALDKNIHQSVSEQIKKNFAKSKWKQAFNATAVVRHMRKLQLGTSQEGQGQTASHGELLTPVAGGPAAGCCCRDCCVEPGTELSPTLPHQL

O=C(NS(=O)(=O)c1ccc(NCC2CCOCC2)c([N+](=O)[O-])c1)c1ccc(N2CCN(Cc3ccc(C(F)(F)F)cc3-c3ccc(Cl)cc3)CC2)cc1Oc1cnc2[nH]ccc2c1 [A-1210227]
residual activity [1]: 94%
residual activity [2]: 100%
inhibition [3]: 10%
residual activity [4]: 100%
residual activity [5]: 97%
residual activity [6]: 77%
inhibition [7]: -9.16%
residual activity [8]: 100%
residual activity [9]: 100%
residual activity [10]: 85%
residual activity [11]: 100%
residual activity [12]: 100%
residual activity [13]: 88%
residual activity [14]: 59%
residual activity [15]: 98%
residual activity [16]: 96%
residual activity [17]: 100%
residual activity [18]: 100%
% Inhibition of Control Specific Binding (Mean n=2) [19]: 2.7%
residual activity [20]: 95%
residual activity [21]: 100%
residual activity [22]: 99%
residual activity [23]: 100%
residual activity [24]: 82%
residual activity [25]: 83%
residual activity [26]: 67%
residual activity [27]: 83%
inhibition at 90 min, 10 µM [28]: 7.3%
inhibition [29]: -6.07%
residual activity [30]: 88%
residual activity [31]: 100%

CO[C@H]1CC[C@H](CNc2ccc(S(=O)(=O)NC(=O)c3ccc(N4CCN(CC5=C(c6ccc(Cl)cc6)CC(C)(C)CC5)CC4)cc3Oc3cnc4[nH]ccc4c3)cc2[N+](=O)[O-])CC1 [A-1211212]
residual activity [1]: 100%
residual activity [2]: 85%
inhibition [3]: 12.5%
residual activity [4]: 60%
residual activity [5]: 84%
residual activity [6]: 72%
inhibition [7]: 34.2%
residual activity [8]: 99%
residual activity [9]: 100%
residual activity [10]: 82%
residual activity [11]: 100%
residual activity [12]: 90%
residual activity [13]: 100%
residual activity [14]: 67%
residual activity [15]: 78%
residual activity [16]: 92%
residual activity [17]: 80%
residual activity [18]: 100%
% Inhibition of Control Specific Binding (Mean n=2) [19]: 8.6%
residual activity [20]: 100%
residual activity [21]: 88%
residual activity [22]: 100%
residual activity [23]: 99%
residual activity [24]: 97%
residual activity [25]: 67%
residual activity [26]: 70%
residual activity [27]: 93%
inhibition at 90 min, 10 µM [28]: 63.2%
inhibition [29]: 4.59%
residual activity [30]: 94%
residual activity [31]: 81%
